In the supplement of paper PMC13380429:

How the values were obtained:
Details in all cases: 72 h
HepG2 [1] = assay: drug sensitivity score (DSS) for viability; higher = more toxic; extreme values may be limits of the assay
Calu-3 [2] = assay: as above
U2OS [3] = assay: as above
Vero E6 [4] = assay: as above
Caco-2 [5] = assay: as above
HepG2 [6] = assay: cell viability relative to DMSO; higher = less toxic
Calu-3 [7] = assay: as above
U2OS [8] = assay: as above
Vero E6 [9] = assay: as above
Caco-2 [10] = assay: as above
HepG2 [11] = assay: relative viability EC50 (midpoint between 100% and the lowest measured viability); higher = less toxic
Calu-3 [12] = assay: as above
U2OS [13] = assay: as above
Vero E6 [14] = assay: as above
Caco-2 [15] = assay: as above

Row | Structure (SMILES) | drug sensitivity score (HepG2 [1]) | drug sensitivity score (Calu-3 [2]) | drug sensitivity score (U2OS [3]) | drug sensitivity score (Vero E6 [4]) | drug sensitivity score (Caco-2 [5]) | cell viability (HepG2 [6]; 1 nM) | cell viability (HepG2 [6]; 10 nM) | cell viability (HepG2 [6]; 100 nM) | cell viability (HepG2 [6]; 1000 nM) | cell viability (HepG2 [6]; 10000 nM) | cell viability (Calu-3 [7]; 1 nM) | cell viability (Calu-3 [7]; 10 nM) | cell viability (Calu-3 [7]; 100 nM) | cell viability (Calu-3 [7]; 1000 nM) | cell viability (Calu-3 [7]; 10000 nM) | cell viability (U2OS [8]; 1 nM) | cell viability (U2OS [8]; 10 nM) | cell viability (U2OS [8]; 100 nM) | cell viability (U2OS [8]; 1000 nM) | cell viability (U2OS [8]; 10000 nM) | cell viability (Vero E6 [9]; 1 nM) | cell viability (Vero E6 [9]; 10 nM) | cell viability (Vero E6 [9]; 100 nM) | cell viability (Vero E6 [9]; 1000 nM) | cell viability (Vero E6 [9]; 10000 nM) | cell viability (Caco-2 [10]; 1 nM) | cell viability (Caco-2 [10]; 10 nM) | cell viability (Caco-2 [10]; 100 nM) | cell viability (Caco-2 [10]; 1000 nM) | cell viability (Caco-2 [10]; 10000 nM) | relative viability EC50 (HepG2 [11]) | relative viability EC50 (Calu-3 [12]) | relative viability EC50 (U2OS [13]) | relative viability EC50 (Vero E6 [14]) | relative viability EC50 (Caco-2 [15])
1 | CCOC(=O)Nc1ccc2c(c1)N(C(=O)CCN(CC)CC)c1ccccc1S2 [ethacizin] | 0.2 | 0 | 0 | 0 | 0 | 86.4% | 90.4% | 80.8% | 92.7% | 104% | 98.3% | 94.8% | 97.4% | 99.2% | 98.1% | 97.2% | 105% | 95.6% | 101% | 95.9% | 104% | 91.8% | 103% | 88.9% | 106% | 94.6% | 82.9% | 97.8% | 103% | 97.6% | > 10 µM | > 10 µM | > 10 µM | > 10 µM | > 10 µM
2 | O=C(OCC(O)CO)c1ccccc1Nc1ccnc2c(C(F)(F)F)cccc12 (stereo not given) [floctafenine] | 0 | 0.7 | 0 | 0 | 0 | 101% | 106% | 107% | 105% | 92.2% | 108% | 98.5% | 95.9% | 98.7% | 81.1% | 101% | 99.4% | 100% | 98.5% | 93.4% | 98.3% | 107% | 95.4% | 101% | 104% | 92.2% | 90.2% | 95.9% | 92.5% | 96.9% | > 10 µM | > 10 µM | > 10 µM | > 10 µM | > 10 µM
3 | CC(C)C(=O)Nc1ccc([N+](=O)[O-])c(C(F)(F)F)c1 [flutamide] | 2 | 0 | 0 | 0 | 0 | 94.5% | 107% | 96.9% | 84.2% | 90.7% | 101% | 96.2% | 99.6% | 101% | 94.9% | 92% | 97.2% | 94.3% | 100% | 93.8% | 106% | 89.8% | 104% | 107% | 111% | 107% | 108% | 92.1% | 116% | 85.7% | > 10 µM | > 10 µM | > 10 µM | > 10 µM | > 10 µM
4 | COc1ccc(-c2coc3cc(O)ccc3c2=O)cc1 [formononetin] | 0 | 0 | 0 | 0 | 0 | 102% | 106% | 97.8% | 104% | 96.7% | 103% | 94.5% | 102% | 89.8% | 93.7% | 102% | 98% | 99.9% | 102% | 103% | 102% | 101% | 99.9% | 105% | 102% | 101% | 101% | 100% | 95.6% | 94.2% | > 10 µM | > 10 µM | > 10 µM | > 10 µM | > 10 µM
5 | COc1ccc(CCN(C)CCCC(C#N)(c2cc(OC)c(OC)c(OC)c2)C(C)C)cc1OC (stereo not given) [gallopamil] | 0 | 0 | 0 | 0 | 0 | 96.8% | 103% | 98.3% | 101% | 106% | 94.1% | 104% | 97% | 92.2% | 104% | 94% | 99.7% | 96.4% | 97.3% | 99.3% | 101% | 97.3% | 96.9% | 102% | 106% | 91.3% | 91.5% | 92.1% | 91.6% | 96% | > 10 µM | > 10 µM | > 10 µM | > 10 µM | > 10 µM
6 | OCc1ccc(O[C@@H]2O[C@H](CO)[C@@H](O)[C@H](O)[C@H]2O)cc1 [gastrodin] | 0 | 0 | 0 | 0 | 0 | 99.1% | 104% | 104% | 107% | 117% | 108% | 94.1% | 94.2% | 110% | 104% | 97.7% | 99.9% | 100% | 99.7% | 98.1% | 95.4% | 99.6% | 95.1% | 92.1% | 95.3% | 106% | 95.9% | 107% | 92% | 106% | > 10 µM | > 10 µM | > 10 µM | > 10 µM | > 10 µM
7 | Cc1cc(O)c2c(=O)c3c(O)cc(O)c4c5c(O)cc(O)c6c(=O)c7c(O)cc(C)c8c1c2c(c34)c(c78)c65 [hypericin] | 0.4 | 0.3 | 1.4 | 0 | 0 | 108% | 106% | 103% | 101% | 81.9% | 106% | 101% | 94% | 110% | 79.7% | 102% | 94.6% | 91.2% | 96.2% | 77.1% | 96.3% | 91.3% | 101% | 80.7% | 95.7% | 104% | 101% | 104% | 99.4% | 98.3% | > 10 µM | > 10 µM | > 10 µM | > 10 µM | > 10 µM
8 | CCc1cc2c(cc1CC)CC(NC[C@H](O)c1ccc(O)c3[nH]c(=O)ccc13)C2 [indacaterol] | 0.2 | 0 | 0 | 0 | 0 | 121% | 115% | 98.4% | 115% | 81% | 112% | 94.2% | 112% | 101% | 91.5% | 106% | 100% | 104% | 95.6% | 95.4% | 96.8% | 94.3% | 96.8% | 96.3% | 94.2% | 89.7% | 97% | 101% | 94.8% | 96.4% | > 10 µM | > 10 µM | > 10 µM | > 10 µM | > 10 µM
9 | CC(C)NNC(=O)c1ccncc1 [iproniazid] | 0 | 0 | 0 | 0 | 0 | 108% | 96.4% | 108% | 104% | 105% | 93.2% | 97.9% | 94.6% | 107% | 99.6% | 96.6% | 98.9% | 97.4% | 103% | 104% | 100% | 95.1% | 101% | 90.8% | 108% | 93.6% | 95.9% | 98.9% | 90.8% | 103% | > 10 µM | > 10 µM | > 10 µM | > 10 µM | > 10 µM
10 | CC(C)COC(=O)c1ccc(N)cc1 [isobutamben] | 0.7 | 0 | 0 | 0 | 0 | 98.7% | 103% | 94.9% | 88% | 90.2% | 87.8% | 100% | 103% | 111% | 102% | 104% | 96.4% | 102% | 94.1% | 99.9% | 102% | 106% | 97.9% | 98.6% | 96.2% | 100% | 95.9% | 102% | 93.1% | 98.8% | > 10 µM | > 10 µM | > 10 µM | > 10 µM | > 10 µM
11 | NNC(=O)c1ccncc1 [isoniazid] | 0 | 0 | 0 | 0 | 0 | 107% | 108% | 100% | 103% | 93.7% | 110% | 98.7% | 100% | 99.2% | 99.8% | 101% | 96.6% | 101% | 96.7% | 102% | 97.8% | 106% | 97.9% | 97.9% | 98.4% | 97.4% | 99.4% | 103% | 91.7% | 97.6% | > 10 µM | > 10 µM | > 10 µM | > 10 µM | > 10 µM
12 | COC(=O)N[C@H](C(=O)N1CC2(CC2)C[C@H]1c1nc(-c2ccc3c(c2)C(F)(F)c2cc(-c4ccc5[nH]c([C@@H]6[C@H]7CC[C@H](C7)N6C(=O)[C@@H](NC(=O)OC)C(C)C)nc5c4)ccc2-3)c[nH]1)C(C)C [ledipasvir] | 0 | 0 | 0.5 | 0 | 0 | 97% | 109% | 96.6% | 96.7% | 101% | 95.9% | 106% | 108% | 110% | 97.7% | 100% | 99% | 101% | 94.2% | 86.6% | 94.3% | 99.7% | 91.9% | 99.7% | 108% | 93.8% | 93.5% | 98.1% | 94.5% | 87.5% | > 10 µM | > 10 µM | > 10 µM | > 10 µM | > 10 µM
